From US11813250B2, “Topical formulations containing mTOR inhibitors” (Shanghai Aucta Pharmaceuticals Co., Ltd., priority 2020, dated 2023)
In brackets after ≈: the same amount, converted by molar mass. Where two headings read alike, the source gives them in different places. Each block holds one compound with its values, some of them ahead of it.

Columns and labels:
[1] = Sirolimus isomer C stability in various solvents under 40° C. for 24 hr (HPLC); assay type: physicochemical
Description: (§1) Sirolimus concentrations are at 20 mg/ml in the solvent and co-solvent systems. The solution was stored at 40° C. oven and samples were evaluated at time 0, 1, 4 and 24 hours with HPLC analysis.

[2] = Seco-Rapamycin in various solvents under 40° C. for 24 hr; assay type: physicochemical; conditions: for percentage of Seco-Rapamycin in the overall amount of sirolimus: 40° C.
Description: as §1
Seco-Rapamycin is a major decomposition product of sirolimus, the open ring conformation of Rapamycin (sirolimus), is also quantitated in the solvent systems. […] The initial concentrations of Seco-Rapamycin were undetectable in the tested samples. Less than 0.5% of sirolimus converted or degraded to Seco-Rapamycin in Propylene Carbonate, DMSO and NMP.

[3] = Solubility in topical solvents; assay type: physicochemical; conditions: organic solvent or mixture
Description: This example evaluated sirolimus and everolimus solubility and stability in various FDA approved topical solvents and co-solvent systems such as diethylene glycol monoethyl ether (Transcutol® P as manufactured by Gattefosse), N-Methyl-2-pyrrolidone (NMP), dimethyl sulfoxide (DMSO), ethanol, Caprylocaproyl polyoxyl-8 glycerides (Labrasol® as manufactured by Gattefosse) and propylene carbonate combined or alone.
The melting point of DMSO is 19° C. (66° F.; 292 K), thus it will freeze under refrigerated condition.

[4] = cited from earlier work
[5] = Everolimus isomer C stability study in various solvents at 50° C.; assay type: physicochemical
Description: The formulation of this example was prepared in substantially the same manner as the composition of Example 1.
Experiments were performed to study the stability of everolimus in Transcutol P, NMP, DMSO and propylene carbonate under 40° C. at concentration of 20 mg/ml and everolimus in Transcutol P, NMP, DMSO, ethanol, Labrasol and propylene carbonate under 50° C. at concentration of 80 mg/ml. […] DMSO, NMP and propylene carbonate stabilized sirolimus and everolimus and could be used as dissolving agents together or separately.
Everolimus concentrations are at 80 mg/ml in the solvent and co-solvent systems. The said solution was stored at 50° C. oven and samples were evaluated at time 0, 1 h, 2 h and 4 h.

[6] = DMSO, room temperature, read-out: solubility in DMSO
[7] = N-Methyl-2-pyrrolidone (NMP), both room temperature and refrigerated condition, read-out: solubility in NMP
[8] = Transcutol P (diethylene glycol monoethyl ether), both room temperature and refrigerated condition, read-out: solubility in Transcutol P
[9] = propylene carbonate, both room temperature and refrigerated condition, read-out: solubility in propylene carbonate

- sirolimus converted to isomer C after time 0 ([1]; in NMP, DMSO and propylene carbonate within 24 hours): less than 1.5%
- Isomer C level (%) ([1]; sirolimus 20 mg/ml in 50% NMP + 50% DMSO, 0 h): 1.07%
- Isomer C level (%) ([1]; sirolimus 20 mg/ml in 50% NMP + 50% DMSO, 1 h): 1.15%
- Isomer C level (%) ([1]; sirolimus 20 mg/ml in 50% NMP + 50% DMSO, 4 h): 1.46%
- Isomer C level (%) ([1]; sirolimus 20 mg/ml in 50% NMP + 50% DMSO, 24 h): 1.46%
- Isomer C level (%) ([1]; sirolimus 20 mg/ml in DMSO, 0 h): 1.51%
- Isomer C level (%) ([1]; sirolimus 20 mg/ml in DMSO, 1 h): 1.23%
- Isomer C level (%) ([1]; sirolimus 20 mg/ml in DMSO, 4 h): 1.72%
- Isomer C level (%) ([1]; sirolimus 20 mg/ml in DMSO, 24 h): 2.50%
- Isomer C level (%) ([1]; sirolimus 20 mg/ml in NMP, 0 h): 1.00%
- Isomer C level (%) ([1]; sirolimus 20 mg/ml in NMP, 1 h): 1.02%
- Isomer C level (%) ([1]; sirolimus 20 mg/ml in NMP, 4 h): 1.21%
- Isomer C level (%) ([1]; sirolimus 20 mg/ml in NMP, 24 h): 1.46%
- Isomer C level (%) ([1]; sirolimus 20 mg/ml in Propylene Carbonate, 0 h): 1.12%
- Isomer C level (%) ([1]; sirolimus 20 mg/ml in Propylene Carbonate, 1 h): 1.12%
- Isomer C level (%) ([1]; sirolimus 20 mg/ml in Propylene Carbonate, 4 h): 1.46%
- Isomer C level (%) ([1]; sirolimus 20 mg/ml in Propylene Carbonate, 24 h): 2.77%
- Isomer C level (%) ([1]; sirolimus 20 mg/ml in Transcutol P, 0 h): 4.93%
- Isomer C level (%) ([1]; sirolimus 20 mg/ml in Transcutol P, 1 h): 7.11%
- Isomer C level (%) ([1]; sirolimus 20 mg/ml in Transcutol P, 4 h): 8.14%
- Isomer C level (%) ([1]; sirolimus 20 mg/ml in Transcutol P, 24 h): 8.18%
- initial concentrations of Seco-Rapamycin ([2]; in the tested samples, time 0): undetectable
- percentage of Seco-Rapamycin in the overall amount of sirolimus ([2]; sirolimus in 50% NMP + 50% DMSO, 4 h): 0.09%
- percentage of Seco-Rapamycin in the overall amount of sirolimus ([2]; sirolimus in 50% NMP + 50% DMSO, 24 h): 0.13%
- percentage of Seco-Rapamycin in the overall amount of sirolimus ([2]; sirolimus in DMSO, 4 h): 0.23%
- percentage of Seco-Rapamycin in the overall amount of sirolimus ([2]; sirolimus in DMSO, 24 h): 0.44%
- percentage of Seco-Rapamycin in the overall amount of sirolimus ([2]; sirolimus in NMP, 4 h): 0.12%
- percentage of Seco-Rapamycin in the overall amount of sirolimus ([2]; sirolimus in NMP, 24 h): 0.26%
- percentage of Seco-Rapamycin in the overall amount of sirolimus ([2]; sirolimus in Propylene Carbonate, 24 h): 0.08%
- percentage of Seco-Rapamycin in the overall amount of sirolimus ([2]; sirolimus in Transcutol P, 0 h): 0.20%
- percentage of Seco-Rapamycin in the overall amount of sirolimus ([2]; sirolimus in Transcutol P, 1 h): 0.23%
- percentage of Seco-Rapamycin in the overall amount of sirolimus ([2]; sirolimus in Transcutol P, 4 h): 0.76%
- percentage of Seco-Rapamycin in the overall amount of sirolimus ([2]; sirolimus in Transcutol P, 24 h): 1.06%
- solubility [3, 6]: > 100 mg/mL
- solubility [3, 7]: > 100 mg/mL
- solubility [3, 8]: > 80 mg/mL
- solubility [3, 9]: ~30 mg/mL (≈ 32.8 mM)
SMILES: CO[C@H]1C[C@@H]2CC[C@@H](C)[C@@](O)(O2)C(=O)C(=O)N2CCCC[C@H]2C(=O)O[C@H]([C@H](C)C[C@@H]2CC[C@@H](O)[C@H](OC)C2)CC(=O)[C@H](C)/C=C(\C)[C@@H](O)[C@@H](OC)C(=O)[C@H](C)C[C@H](C)/C=C/C=C/C=C/1C [Sirolimus]
- water solubility [4]: poorly water-soluble

- solubility [3, 6]: > 200 mg/mL
- solubility [3, 7]: > 100 mg/mL
- solubility [3, 8]: > 100 mg/mL
- solubility [3, 9]: > 100 mg/mL
- Isomer C level (%) ([5]; everolimus 80 mg/ml in DMSO, 0 h): 1.63%
- Isomer C level (%) ([5]; everolimus 80 mg/ml in DMSO, 1 h): 1.67%
- Isomer C level (%) ([5]; everolimus 80 mg/ml in DMSO, 2 h): 1.73%
- Isomer C level (%) ([5]; everolimus 80 mg/ml in DMSO, 4 h): 1.86%
- Isomer C level (%) ([5]; everolimus 80 mg/ml in Ethanol, 0 h): 1.85%
- Isomer C level (%) ([5]; everolimus 80 mg/ml in Ethanol, 1 h): 2.66%
- Isomer C level (%) ([5]; everolimus 80 mg/ml in Ethanol, 2 h): 3.81%
- Isomer C level (%) ([5]; everolimus 80 mg/ml in Ethanol, 4 h): 5.40%
- Isomer C level (%) ([5]; everolimus 80 mg/ml in NMP, 0 h): 1.62%
- Isomer C level (%) ([5]; everolimus 80 mg/ml in NMP, 1 h): 1.76%
- Isomer C level (%) ([5]; everolimus 80 mg/ml in NMP, 2 h): 1.86%
- Isomer C level (%) ([5]; everolimus 80 mg/ml in NMP, 4 h): 1.99%
- Isomer C level (%) ([5]; everolimus 80 mg/ml in Propylene Carbonate, 0 h): 1.63%
- Isomer C level (%) ([5]; everolimus 80 mg/ml in Propylene Carbonate, 1 h): 1.84%
- Isomer C level (%) ([5]; everolimus 80 mg/ml in Propylene Carbonate, 2 h): 2.06%
- Isomer C level (%) ([5]; everolimus 80 mg/ml in Propylene Carbonate, 4 h): 2.47%
- Isomer C level (%) ([5]; everolimus 80 mg/ml in Transcutol P, 0 h): 1.71%
- Isomer C level (%) ([5]; everolimus 80 mg/ml in Transcutol P, 1 h): 3.78%
- Isomer C level (%) ([5]; everolimus 80 mg/ml in Transcutol P, 2 h): 5.26%
- Isomer C level (%) ([5]; everolimus 80 mg/ml in Transcutol P, 4 h): 6.43%
- increase of the assay of everolimus isomer C ([5]; from 0 h to 4 h in DMSO, propylene carbonate and NMP, 80 mg/ml): less than 1.5%
SMILES: CO[C@H]1C[C@@H]2CC[C@@H](C)[C@@](O)(O2)C(=O)C(=O)N2CCCC[C@H]2C(=O)O[C@H]([C@H](C)C[C@@H]2CC[C@@H](OCCO)[C@H](OC)C2)CC(=O)[C@H](C)/C=C(\C)[C@@H](O)[C@@H](OC)C(=O)[C@H](C)C[C@H](C)/C=C/C=C/C=C/1C [Everolimus]
- water solubility [4]: poorly water-soluble
